This is an account of results in patent publication US20040249122A1, “Cationic, amphipathic beta-sheet peptides and uses thereof” (priority 2003, published 2004).

Test [1] concerns Pseudomonas aeruginosa (ATCC 27853). The format is cell-based. How it is done:
(§1) Antimicrobial and Hemolytic Assays. Antimicrobial susceptibility testing against Staphylococcus aureus (ATCC 29213), Escherichia coli (ATCC 25922), and Pseudomonas aeruginosa (ATCC 27853) was performed using a modification of the National Committee for Clinical Laboratory Standards microdilution broth assay (22). Mueller-Hinton broth (BBL) was used for diluting the peptide stock solution and for diluting the bacterial inoculum. The inoculum was prepared from mid-logarithmic phase cultures. […] The final concentration of peptide solution ranged-from 0.25 to 256 μg/mL in two-fold dilutions. The final concentration of bacteria in the wells was 5×10^5 CFU/mL. Peptides were tested in duplicate. In addition to the test peptide, three standard peptides and a non-treated growth control were included to validate the assay. The microtiter plates were incubated overnight at 37° C. and the absorbance was measured at 600 nm. […] After incubation at 37° C. for 30 min, the suspension was centrifuged at 10,000×g for 10 min and the absorbance at 400 nm was measured.

For test [2], the system named is Escherichia coli (ATCC 25922). The class given is cell-based. How it is done: as §1
The test system of test [3] is Staphylococcus aureus (ATCC 29213). The class given is cell-based. As for the experimental part: as §1
Test [4] deals with E. coli, S. aureus, and P. aeruginosa. The class given is cell-based. How it is done: Antimicrobial and Hemolytic Assays. Antimicrobial susceptibility testing against Staphylococcus aureus (ATCC 29213), Escherichia coli (ATCC 25922), and Pseudomonas aeruginosa (ATCC 27853) was performed using a modification of the National Committee for Clinical Laboratory Standards microdilution broth assay (22). Mueller-Hinton broth (BBL) was used for diluting the peptide stock solution and for diluting the bacterial inoculum. The inoculum was prepared from mid-logarithmic phase cultures. Microtiter plate wells received aliquots-of 100 μL each of the inoculum and peptide dilution. The final concentration of peptide solution ranged-from 0.25 to 256 μg/mL in two-fold dilutions. The final concentration of bacteria in the wells was 5×10^5 CFU/mL. Peptides were tested in duplicate. In addition to the test peptide, three standard peptides and a non-treated growth control were included to validate the assay. The microtiter plates were incubated overnight at 37° C. and the absorbance was measured at 600 nm. […] Hemolysis at peptide concentrations of 500 μg/mL was determined using a 5% suspension of freshly drawn human erythrocytes, which had been washed twice in phosphate buffered saline. After incubation at 37° C. for 30 min, the suspension was centrifuged at 10,000×g for 10 min and the absorbance at 400 nm was measured. Complete hemolysis was determined by adding 0.2% Triton X-100 in place of the peptide.

The nature of test [5]: Peptide-induced leakage from calcein-loaded LUV. As for the experimental part: Peptide-Induced Leakage from Calcein-Loaded LUV. The ability of the peptides to release calcein (MW 623) from LUV of varying lipid composition was compared. LUV were prepared as above, except that-the buffer consisted of 50 mM HEPES, 100 mM NaCl, 0.3 mM EDTA, 80 mM calcein, pH 7.4. Calcein-loaded vesicles were separated from free calcein by size-exclusion chromatography using a Sephadex G-50 column and calcein-free buffer. Calcein leakage was monitored using a Perkin-Elmer LS-500 luminescence spectrometer by measuring the time-dependent increase in fluorescence of calcein (excitation=490 nm, emission=520 nm). LUV containing 8 nmoles of lipid were added to 1.5 mL of buffer in a stirred cuvet at 25° C. An aliquot of peptide was added to achieve the desired lipid-to-peptide ratio (256 to 8). Complete leakage was determined by the addition of 20 μL of 10% Triton X-100. Each value represents at least nine different measurements using at least three different LUV preparations.

Values after ≈ are worked out from the molar mass of the structure shown. Like-named read-outs stand apart in the source and are kept apart here. Where a SMILES comes first, the peptide text is derived from it. Where no end group is shown, it is not given here. The star is where a group is joined. Octanoyl = CCCCCCCC(=O)* Bounds are passed on as bounds.

Consider `CC[C@H](C)[C@H](NC(=O)[C@H](C)NC(=O)[C@H](CCCCN)NC(=O)CNC(=O)[C@@H](NC(=O)[C@H](CCCCN)NC(=O)[C@@H](NC(=O)[C@H](C)NC(=O)[C@H](CCCCN)NC(=O)CNC(=O)[C@H](Cc1c[nH]c2ccccc12)NC(=O)[C@H](CCCCN)NC(=O)[C@@H](NC(=O)[C@H](C)NC(=O)[C@H](CCCCN)NC(=O)CNC(=O)[C@@H](NC(=O)[C@@H](N)CCCCN)[C@@H](C)CC)[C@@H](C)CC)[C@@H](C)CC)[C@@H](C)CC)C(N)=O` [1,4-Hex, K I G K A I K W G K A I K I G K A I-NH2] (H-KIGKAIKWGKAIKIGKAI-NH2; N-terminus assumed), for which the “MIC Pseud. aerug” value in test [1] (ATCC 27853) is 64 µg/mL (≈ 33.3 µM). Moreover, the “MIC E. coli” value in test [2] (ATCC 25922) was 32 µg/mL (≈ 16.6 µM). Also, in test [3] (ATCC 29213), the “MIC Staph. aureus” value was greater than 256 µg/mL.
In the same order, the values of `CC[C@H](C)[C@H](NC(=O)[C@H](C)NC(=O)CNC(=O)[C@@H](NC(=O)[C@H](CCCCN)NC(=O)[C@H](CCCCN)NC(=O)[C@@H](NC(=O)[C@H](C)NC(=O)CNC(=O)[C@H](Cc1c[nH]c2ccccc12)NC(=O)[C@H](CCCCN)NC(=O)[C@H](CCCCN)NC(=O)[C@@H](NC(=O)[C@H](C)NC(=O)CNC(=O)[C@@H](NC(=O)[C@@H](N)CCCCN)[C@@H](C)CC)[C@@H](C)CC)[C@@H](C)CC)[C@@H](C)CC)C(=O)N[C@@H](CCCCN)C(N)=O` [1,6-Hex, K I G A I K K W G A I K K I G A I K-NH2] (H-KIGAIKKWGAIKKIGAIK-NH2; N-terminus assumed) are greater than 256 µg/mL, greater than 256 µg/mL and greater than 256 µg/mL.
`CC(C)C[C@H](NC(=O)CNC(=O)[C@H](C)NC(=O)[C@H](CC(C)C)NC(=O)[C@H](CCCCN)NC(=O)[C@H](CCCCN)NC(=O)[C@H](C)NC(=O)[C@H](CC(C)C)NC(=O)CNC(=O)[C@H](C)NC(=O)[C@H](Cc1c[nH]c2ccccc12)NC(=O)[C@H](CCCCN)NC(=O)[C@H](CCCCN)NC(=O)[C@H](C)NC(=O)[C@H](CC(C)C)NC(=O)CNC(=O)[C@H](C)NC(=O)[C@H](CC(C)C)NC(=O)[C@H](CCCCN)NC(=O)[C@@H](N)CCCCN)C(=O)N[C@@H](C)C(N)=O` [1,2-Hept, KKLAGLAKKWAGLAKKLAGLA-NH2] (H-KKLAGLAKKWAGLAKKLAGLA-NH2; N-terminus assumed): the “antimicrobial activity (in words)” value in test [4] is given as “relatively low MIC values”. Further, in test [1] (ATCC 27853), the “MIC Pseud. aerug” value is 16 µg/mL (≈ 7.49 µM). In addition, in test [2] (ATCC 25922), the “MIC E. coli” value is 8 µg/mL (≈ 3.75 µM). Besides, the “MIC Staph. aureus” value in test [3] (ATCC 29213) was found to be 16 µg/mL (≈ 7.49 µM).
Turning to `CCCCCCCC(=O)N[C@@H](CCCCN)C(=O)N[C@H](C(=O)NCC(=O)N[C@@H](C)C(=O)N[C@@H](CCCCN)C(=O)N[C@H](C(=O)N[C@@H](CCCCN)C(=O)N[C@H](C(=O)NCC(=O)N[C@@H](C)C(=O)N[C@@H](CCCCN)C(=O)N[C@H](C(=O)N[C@@H](CCCCN)C(=O)N[C@@H](Cc1c[nH]c2ccccc12)C(=O)NCC(=O)N[C@@H](C)C(=O)N[C@@H](CCCCN)C(=O)N[C@H](C(N)=O)[C@@H](C)CC)[C@@H](C)CC)[C@@H](C)CC)[C@@H](C)CC)[C@@H](C)CC` [Oct-KIGAKI-18B, Oct- K I G A K I K I G A K I K W G A K I-NH2] (Octanoyl-KIGAKIKIGAKIKWGAKI-NH2), the “MIC Pseud. aerug” value in test [1] (Table 103) came out at 8 µg/mL (≈ 3.9 µM). Further, the “MIC E. coli” value in test [2] (Table 103) amounted to 8 µg/mL (≈ 3.9 µM). Also, the “MIC Staph. aureus” value in test [3] (Table 103) is 8 µg/mL (≈ 3.9 µM).
For the compound `CC(C)C[C@H](NC(=O)[C@H](CCCCN)NC(=O)CNC(=O)[C@H](C)NC(=O)[C@H](CC(C)C)NC(=O)[C@H](CCCCN)NC(=O)[C@H](C)NC(=O)[C@H](CC(C)C)NC(=O)[C@H](CCCCN)NC(=O)CNC(=O)[C@H](C)NC(=O)[C@H](Cc1c[nH]c2ccccc12)NC(=O)[C@H](CCCCN)NC(=O)[C@H](C)NC(=O)[C@H](CC(C)C)NC(=O)[C@H](CCCCN)NC(=O)CNC(=O)[C@H](C)NC(=O)[C@H](CC(C)C)NC(=O)[C@@H](N)CCCCN)C(=O)N[C@@H](C)C(N)=O` [1,5-Hept, KLAGKLAKWAGKLAKLAGKLA-NH2] (H-KLAGKLAKWAGKLAKLAGKLA-NH2; N-terminus assumed), the “antimicrobial activity (in words)” value in test [4] is “relatively low MIC values”. For the same compound, the “MIC Pseud. aerug” value in test [1] (ATCC 27853) was 16 µg/mL (≈ 7.49 µM). In addition, the “MIC E. coli” value in test [2] (ATCC 25922) was found to be 8 µg/mL (≈ 3.75 µM). In addition, the “MIC Staph. aureus” value in test [3] (ATCC 29213) was 4 µg/mL (≈ 1.87 µM).
Turning to “K I G A K S K H G A K I K I G A K I-NH2 (KIGAKSKHGAKIKIGAKI-NH2) [SH-KIGAKI]”, the “calcein leakage from LUV (in words)” value in test [5] (POPC (PC) LUV) is “low lytic activity”; in test [5] (POPC/POPG LUV, all ratios (1:1 to 4:1)), “no ability to induce leakage”; in test [5] (any LUVs containing PE/PG) it was “no ability to induce leakage”.
For the compound `CC[C@H](C)[C@H](NC(=O)[C@H](C)NC(=O)CNC(=O)[C@@H](NC(=O)[C@H](CCCCN)NC(=O)[C@H](CCCCN)NC(=O)[C@@H](NC(=O)[C@H](C)NC(=O)CNC(=O)[C@H](Cc1c[nH]c2ccccc12)NC(=O)[C@H](CCCCN)NC(=O)[C@H](CCCCN)NC(=O)[C@@H](NC(=O)[C@H](C)NC(=O)CNC(=O)[C@@H](NC(=O)[C@H](CCCCN)NC(=O)[C@@H](N)CCCCN)[C@@H](C)CC)[C@@H](C)CC)[C@@H](C)CC)[C@@H](C)CC)C(N)=O` [1,2-Hex, K K I G A I K K W G A J K K I G A I-NH2] (H-KKIGAIKKWGAIKKIGAI-NH2; N-terminus assumed), in test [1] (ATCC 27853), the “MIC Pseud. aerug” value was found to be 128 µg/mL (≈ 66.6 µM). In addition, in test [2] (ATCC 25922), the “MIC E. coli” value was 128 µg/mL (≈ 66.6 µM). Further, in test [3] (ATCC 29213), the “MIC Staph. aureus” value is greater than 256 µg/mL.
As for `CCCCCCCC(=O)N[C@@H](CCCCN)C(=O)N[C@H](C(=O)NCC(=O)N[C@@H](C)C(=O)N[C@@H](CCCCN)C(=O)N[C@H](C(=O)N[C@@H](CCCCN)C(=O)N[C@@H](Cc1c[nH]c2ccccc12)C(=O)NCC(=O)N[C@@H](C)C(=O)N[C@@H](CCCCN)C(=O)N[C@H](C(=O)N[C@@H](CCCCN)C(=O)N[C@H](C(=O)NCC(=O)N[C@@H](C)C(=O)N[C@@H](CCCCN)C(=O)N[C@H](C(N)=O)[C@@H](C)CC)[C@@H](C)CC)[C@@H](C)CC)[C@@H](C)CC)[C@@H](C)CC` [Oct-KIGAKI-18A, Oct- K I G A K I K W G A K I K I G A K I-NH2] (Octanoyl-KIGAKIKWGAKIKIGAKI-NH2), in test [1] (Table 103), the “MIC Pseud. aerug” value was 8 µg/mL (≈ 3.9 µM). The “MIC E. coli” value in test [2] (Table 103) came to 8 µg/mL (≈ 3.9 µM). Moreover, the “MIC Staph. aureus” value in test [3] (Table 103) was determined as 4 µg/mL (≈ 1.95 µM).
For the compound `CC[C@H](C)[C@H](NC(=O)[C@H](CCCCN)NC(=O)[C@H](C)NC(=O)CNC(=O)[C@@H](NC(=O)[C@H](CCCCN)NC(=O)[C@@H](NC(=O)[C@H](CCCCN)NC(=O)[C@H](C)NC(=O)CNC(=O)[C@H](Cc1c[nH]c2ccccc12)NC(=O)[C@H](CCCCN)NC(=O)[C@@H](NC(=O)[C@H](CCCCN)NC(=O)[C@H](C)NC(=O)CNC(=O)[C@@H](NC(=O)[C@@H](N)CCCCN)[C@@H](C)CC)[C@@H](C)CC)[C@@H](C)CC)[C@@H](C)CC)C(N)=O` [1,5-Hex, K I G A K I K W G A K I K I G A K I-NH2] (H-KIGAKIKWGAKIKIGAKI-NH2; N-terminus assumed), the “antimicrobial activity (in words)” value in test [4] is recorded as “appreciable antimicrobial activity”.
